Measured values taken from ChEMBL document CHEMBL3046841, “The synthesis and screening of the antimicrobial activity of some novel 3-(furan-2-yl)-1-(aryl)-3-(phenylthio) propan-1-one derivatives” (2011).
Converted amounts (≈) assume the structure as drawn.

Legend:
Format in all cases: functional
Pseudomonas aeruginosa [1] = assay: Antimicrobial activity against Pseudomonas aeruginosa ATCC 27859 after 24 hr by serial microdilution method; conditions: ATCC 27859, 24 h
Salmonella enteritidis [2] = assay: Antimicrobial activity against Salmonella enterica subsp. enterica serovar Enteritidis ATCC 13076 after 24 hr by serial microdilution method; conditions: ATCC 13076, 24 h
Proteus vulgaris [3] = assay: Antimicrobial activity against Proteus vulgaris KUEN 1329 after 24 hr by serial microdilution method; conditions: KUEN 1329, 24 h
Candida albicans [4] = assay: Antimicrobial activity against Candida albicans ATCC 1213 by serial microdilution method
Escherichia coli = assay: Antimicrobial activity against Escherichia coli 111 after 24 hr by serial microdilution method; conditions: Escherichia coli, 111, 24 h
Staphylococcus aureus [5] = assay: Antimicrobial activity against Staphylococcus aureus ATCC 29213 after 24 hr by serial microdilution method; conditions: ATCC 29213, 24 h
Pseudomonas aeruginosa [6] = assay: Antimicrobial activity against Pseudomonas aeruginosa ATCC 9027 after 24 hr by serial microdilution method; conditions: ATCC 9027, 24 h
Streptococcus pyogenes = assay: Antimicrobial activity against Streptococcus pyogenes ATCC 176 after 24 hr by serial microdilution method; conditions: ATCC 176, 24 h
Cyberlindnera jadinii [7] = assay: Antimicrobial activity against Cyberlindnera jadinii KUEN 1031 serial microdilution method; conditions: Williopsis jadinii
Bacillus subtilis = assay: Antimicrobial activity against Bacillus subtilis ATCC 6633 after 24 hr by serial microdilution method; conditions: ATCC 6633, 24 h
Bacillus cereus [8] = assay: Antimicrobial activity against Bacillus cereus DSM 4312 after 24 hr by serial microdilution method; conditions: DSM 4312, 24 h
Cyberlindnera jadinii [9] = assay: Antimicrobial activity against Cyberlindnera jadinii KUEN 1031 at 105 ug/disc after 48 hr by disk diffusion method; conditions: Williopsis jadinii, KUEN 1031, 48 h; read-out: IZ
Proteus vulgaris [10] = assay: Antimicrobial activity against Proteus vulgaris KUEN 1329 at 105 ug/disk after 24 hr by disk diffusion method; conditions: KUEN 1329, 24 h, read-out: IZ
Staphylococcus aureus [11] = assay: Antimicrobial activity against Staphylococcus aureus ATCC 29213 at 105 ug/disc after 24 hr by disk diffusion method; conditions: ATCC 29213, 24 h, read-out: IZ
Bacillus cereus [12] = assay: Antimicrobial activity against Bacillus cereus DSM 4312 at 105 ug/disk after 24 hr by disk diffusion method; conditions: DSM 4312, 24 h, read-out: IZ
Candida albicans [13] = assay: Antimicrobial activity against Candida albicans ATCC 1213 at 105 ug/disk after 48 hr by disk diffusion method; conditions: ATCC 1213, 48 h, read-out: IZ
Pseudomonas aeruginosa [14] = assay: Antimicrobial activity against Pseudomonas aeruginosa ATCC 9027 at 105 ug/disk after 24 hr by disk diffusion method; conditions: ATCC 9027, 24 h, read-out: IZ
Salmonella enteritidis [15] = assay: Antimicrobial activity against Salmonella enterica subsp. enterica serovar Enteritidis ATCC 13076 at 105 ug/disk after 24 hr by disk diffusion method; conditions: ATCC 13076, 24 h, read-out: IZ

SMILES	MIC (Pseudomonas aeruginosa [1]) [µg/mL]	MIC (Salmonella enteritidis [2]) [µg/mL]	MIC (Proteus vulgaris [3]) [µg/mL]	MIC (Candida albicans [4]) [µg/mL]	MIC (Escherichia coli) [µg/mL]	MIC (Staphylococcus aureus [5]) [µg/mL]	MIC (Pseudomonas aeruginosa [6]) [µg/mL]	MIC (Streptococcus pyogenes) [µg/mL]	MIC (Cyberlindnera jadinii [7]) [µg/mL]	MIC (Bacillus subtilis) [µg/mL]	MIC (Bacillus cereus [8]) [µg/mL]	zone of inhibition at 105 µg/disc (Cyberlindnera jadinii [9]) [mm]	zone of inhibition at 105 µg/disc (Proteus vulgaris [10]) [mm]	zone of inhibition at 105 µg/disc (Staphylococcus aureus [11]) [mm]	zone of inhibition at 105 µg/disc (Bacillus cereus [12]) [mm]	zone of inhibition at 105 µg/disc (Candida albicans [13]) [mm]	zone of inhibition at 105 µg/disc (Pseudomonas aeruginosa [14]) [mm]	zone of inhibition at 105 µg/disc (Salmonella enteritidis [15]) [mm]
CN(C)[C@@H]1C(O)=C(C(N)=O)C(=O)[C@@]2(O)C(O)=C3C(=O)c4c(O)cccc4[C@@](C)(O)[C@H]3C[C@@H]12 [TETRACYCLINE]	> 125	7.81 (≈ 17.6 µM)	3.9 (≈ 8.78 µM)	125 (≈ 281 µM)	125 (≈ 281 µM)	125 (≈ 281 µM)	3.9 (≈ 8.78 µM)	3.9 (≈ 8.78 µM)	15.6 (≈ 35.1 µM)	15.6 (≈ 35.1 µM)	62.5 (≈ 141 µM)							
O=C(CC(Sc1ccccc1)c1ccco1)c1cccc(Br)c1 (stereo unspecified)	> 125	31.2 (≈ 80.7 µM)	31.2 (≈ 80.7 µM)	> 125	> 125	15.6 (≈ 40.3 µM)	15.6 (≈ 40.3 µM)	31.2 (≈ 80.7 µM)	> 125	31.2 (≈ 80.7 µM)	31.2 (≈ 80.7 µM)	14	15	16	13	16	16	16
O=C(CC(Sc1ccccc1)c1ccco1)c1ccc(Br)cc1 (stereo unspecified)	31.2 (≈ 80.7 µM)	62.5 (≈ 161 µM)	15.6 (≈ 40.3 µM)	15.6 (≈ 40.3 µM)	> 125	> 125	31.2 (≈ 80.7 µM)	7.81 (≈ 20.2 µM)	125 (≈ 323 µM)	31.2 (≈ 80.7 µM)	62.5 (≈ 161 µM)	13	15			11	15	17
CO/N=C(\C(=O)N[C@@H]1C(=O)N2C(C(=O)O)=C(CSc3nc(=O)c(O)nn3C)CS[C@H]12)c1csc(N)n1 [CEFTRIAXONE]	> 125	125 (≈ 225 µM)	15.6 (≈ 28.2 µM)	> 125	> 125	> 125	15.6 (≈ 28.2 µM)	3.9 (≈ 7.03 µM)	15.6 (≈ 28.2 µM)	3.9 (≈ 7.03 µM)	> 125							
